# Test results reported in patent publication US20070248705A1, “Agents for Activating the Transcription Factor Nrf2 and Foods Having Such Function” (KIRIN BEER KABUSHIKI KAISHA, priority 2004, published 2007).
# Entries after “also recorded” stand apart in the source; their conditions may differ.
# Key:
# [1] = test system: quinone reductase (QR) activity in mouse hepatoma Hepa1c1c7 cells; assay: Induction of quinone reductase (QR) activity; format: cell-based; conditions: Hepa1c1c7 cells, 0.6, 1.7, 5, and 15 μM, 48 hours
# Experimental: It has been known that quinone reductase (QR) activity is increased by increasing the expression of NAD(P)H:quinone oxidoreductase (NQO1) by Nrf2 activation (Proc Natl Acad Sci USA. 101, 10446-51 (2004)). Accordingly, isohumulones were allowed to act on mouse hepatoma Hepa1c1c7 cells (available from Dainippon Pharmaceutical Co., Ltd.) to examine whether the QR activity was induced.
# The QR activity was measured in accordance with the method described in Analytical Biochemistry 169, 328-336 (1988).
# A mouse hepatoma cell line Hepa1c1c7 was seeded on a 96-well plate (7-10×10^3 cells/well), 50 μl each of an α-MEM medium (Invitrogen) supplemented with 10% fetal bovine serum (HyClone) and penicillin-streptomycin (100 units/ml and 100 μg/ml, respectively; Sigma) was added, and the plate was incubated at […] in an atmosphere of 5% CO2 overnight. Next, the culture medium was replaced with a medium containing isomerized hop extract individually at a concentration of 1.9, 5.6, 16.7, or 50 μg/ml, or with a medium containing humulone (H), cohumulone (cH), adhumulone (aH), isohumulone (IH), isohumulone (IcH), or isohumulone (IaH) individually at a concentration of 0.6, 1.7, 5, and 15 μM and the plate was further incubated for 48 hours. Then, the cells in each well were broken using 0.08% digitonin and a 2 mM EDTA solution and absorption at 610 nm was measured by a menadione-formazan system using a microplate reader (Power Wave 200, Bio-Tek Instruments).
# The QR inducing activity was calculated as a relative activity setting the activity of cells without addition to be 1 (n=3, mean±standard variation). Sulforaphane (Sul, available from Sigma) was used as a positive control.
# ICAM-1 = ICAM-1 expression in vascular endothelial cells (HAEC), TNF-α stimulation, flow cytometry; format: cell-based, human; conditions: TNF-α 1.25 ng/ml
# Experimental: Normal human aorta endothelial cells (HAEC, available from Cambrex) were cultured in a φ100 mm dish using 10 ml of endothelial cell medium kit-2 (Takara Shuzo) at 37° C. in an atmosphere of 5% CO2. Here, 30 μg/ml isomerized hop extract, 10 μM sulforaphane (Sul), or 10 mM N-acetyl cysteine (NAC) was allowed to act overnight. Next, after stimulating with the addition of human TNF-α (ProSpec-Tany TechnoGene) at a final concentration of 1.25 ng/ml), the cells were detached using a reagent for subculturing (Takara Shuzo) and flow cytometry analysis was carried out. Here, biotin anti-human ICAM antibody or biotin anti-human VCAM antibody (available from eBioscience) was used as a primary antibody and PE conjugated streptavidin (available from eBioscience) was used as a secondary antibody. A flow cytometer used was a FACSort analyzer (Becton Dickinson).
# [2] = test system: glucose-6-phosphate dehydrogenase, X-linked (G6PDX); assay: Expression of genes controlled by Nrf2 in RAW264.7: G6PDX; format: cell-based, mouse; conditions: RAW264.7, 3 μM, positive control
# Experimental: (§1) A mouse macrophage cell line RAW264.7 was seeded on a φ60 mm dish (9×10^5 cells), 2 ml of a D-MEM medium (Invitrogen) supplemented with 10% fetal bovine serum (HyClone) and penicillin-streptomycin (100 units/ml and 100 μg/ml, respectively; Sigma) was added, and the dish was incubated at 37° C. in an atmosphere of 5% CO2 for 2 days. The medium was replaced with a fresh medium containing individual samples and incubation was continued for another 20 hours. Then, the total RNA was prepared using TRIzol (Invitrogen) and purified using a RNeasy Mini kit (Qiagen) and an RNase-free DNase set (Qiagen). Further, cDNA was synthesized from 5 μg of the purified total RNA using a Thermo Script RT-PCR system (Invitrogen), and the amount of mRNA expression of various genes was determined using a FastStart DNA Master SYBR Green I kit (Roche) and a Light Cycler (Roche).
# (§2) The amount of expression of the various genes was corrected by the amount of expression of the housekeeping gene PO and calculated as a relative expression level (n=2, mean±standard deviation). […]
# TNF-α = assay: Suppression of TNF-α production by macrophages (TPA and IFN-γ); format: cell-based, mouse; conditions: RAW264.7, TPA 400 nM and IFN-γ 10 units/ml, positive control
# Experimental: A mouse macrophage cell line RAW264.7 (4×10^4 cells/well) was seeded on a 96-well plate, […] of a D-MEM medium (Invitrogen) containing each sample, 10% fetal bovine serum (HyClone), and penicillin-streptomycin (100 units/ml and 100 μg/ml, respectively; Sigma) was added, and the plate was incubated at 37° C. in an atmosphere of 5% CO2 for 4 hours. Then 150 μl of a medium containing TPA (phorbol 12-tetradecanoate 13-acetate, Sigma), mouse IFN-γ (interferon-γ, eBioscience), and each sample was added and incubation was carried out for 24 hours. TPA and IFN-γ were added at a final concentration of 400 nM and 10 units/ml, respectively. As samples, isomerized hop extract was added at a concentration of 5, 10, 20, and 30 μ/ml and isohumulone (IH(F)) and isohumulone (IcH(G)) were added individually at a concentration of 5, 10, 20, and 40 μM.
# After completing incubation, the amount of TNF-α in the culture fluid was measured using a mouse TNF-α ELISA kit(eBioscience). The amount of TNF-α was expressed as a relative value by setting the value for the control as 100% (n=3, mean±standard variation). As a positive control, 15dPGJ2 (Cayman Chemical) was used.
# heme oxygenase 1 (HO1) = assay: Expression of genes controlled by Nrf2 in RAW264.7: HO1; format: cell-based, mouse; conditions: RAW264.7, 3 μM, positive control
# Experimental: as §1, §2
# CD36 = assay: Expression of genes controlled by Nrf2 in RAW264.7: CD36; format: cell-based, mouse; conditions: RAW264.7, 3 μM, positive control
# Experimental: as §1, §2
# [3] = test system: NAD(P)H:quinone oxidoreductase (NQO1); assay: Expression of genes controlled by Nrf2 in RAW264.7: NQO1; format: cell-based, mouse; conditions: RAW264.7, 3 μM, positive control
# Experimental: as §1, §2
# [4] = test system: mouse macrophage cell line RAW264.7; assay: Suppressive action on cell death by hydrogen peroxide; format: cell-based; conditions: RAW264.7, 3 μM, positive control
# Experimental: A mouse macrophage cell line RAW264.7 (6×10^4 cells/well) was incubated on a 96-well plate in 100 μl of a D-MEM medium (Invitrogen) containing individual samples, 10% fetal bovine serum (HyClone), and penicillin-streptomycin (100 units/ml and 100 μg/ml, respectively; Sigma) at 37° C. in an atmosphere of 5% CO2 overnight. The samples added were isohumulone (IH(F)) and isohumulone (IcH(G)) at a concentration of 25 μM. Hydrogen peroxide (Wako Pure Chemical Industries) was added hereto at a final concentration of 0.8 or 1.0 mM and incubation was continued for another 2 hours. Then, adsorption at 440 nm was measured using a microplate reader (Power Wave 200, Bio-Tek Instruments) with a cell growth reagent WST-1 (Roche Diagnostics). The cell survival rate for each sample was calculated by setting the value without hydrogen peroxide as 100% (n=2, mean±standard variation). As a positive control, 15dPGJ2 (Cayman Chemical) was used.
# [5] = test system: thioredoxin reductase 1 (TXNRD1); assay: Expression of genes controlled by Nrf2 in RAW264.7: TXNRD1; format: cell-based, mouse; conditions: RAW264.7, 3 μM, positive control
# Experimental: as §1, §2
# [6] = test system: glucose-6-phosphate dehydrogenase 2 (G6PD2); assay: Expression of genes controlled by Nrf2 in RAW264.7: G6PD2; format: cell-based, mouse; conditions: RAW264.7, 3 μM, positive control
# Experimental: as §1, §2
# catalase 1 (CAT1) = assay: Expression of genes controlled by Nrf2 in RAW264.7: CAT1; format: cell-based, mouse; conditions: RAW264.7, 3 μM, positive control
# Experimental: as §1, §2
# [7] = test system: mouse macrophage cell line RAW264.7; assay: Amount of intracellular glutathione; format: cell-based; conditions: RAW264.7, 3 μM, positive control
# Experimental: A mouse macrophage cell line RAW264.7 was seeded on a φ60 mm dish (7×10^5 cells), 2 ml of a D-MEM medium (Invitrogen) supplemented with 10% fetal bovine serum (HyClone) and penicillin-streptomycin (100 units/ml and 100 μg/ml, respectively; Sigma) was added, and the dish was incubated at 37° C. in an atmosphere of 5% CO2 for 2 days. The medium was replaced with a fresh medium containing individual samples and incubation was continued for another 20 hours. The samples added were isohumulone (IH(F)) and isohumulone (IcH(G)) at a concentration of 25 μM. The cells were recovered, broken by ultrasonication, and centrifuged to obtain the supernatant, and the amount of the total intracellular glutathione was measured using a glutathione assay kit (Cayman Chemical) (n=2, mean±standard deviation). As a positive control, 15dPGJ2 (Cayman Chemical) was used.
# [8] = test system: glutathione S-transferase pi2 (GSTP2); assay: Expression of genes controlled by Nrf2 in RAW264.7: GSTP2; format: cell-based, mouse; conditions: RAW264.7, 3 μM, positive control
# Experimental: as §1, §2
# [9] = test system: glutathione S-transferase mu1 (GSTM1); assay: Expression of genes controlled by Nrf2 in RAW264.7: GSTM1; format: cell-based, mouse; conditions: RAW264.7, 3 μM, positive control
# Experimental: as §1, §2
# [10] = test system: glutamate cysteine ligase modifier subunit (GCLM); assay: Expression of genes controlled by Nrf2 in RAW264.7: GCLM; format: cell-based, mouse; conditions: RAW264.7, 3 μM, positive control
# Experimental: as §1, §2
structure (smiles),measurement,setting,value
CC(C)=CCC(=O)C1(O)C(O)=C(C(=O)C(C)C)C(=O)C1CC=C(C)C (stereo not drawn) [IcH],QR inducing activity,[1],higher activity than isohumulone (IaH)
same,QR inducing activity,[1]; listed as ICH,Concentration-dependent QR inducing activity
CC(=O)N[C@@H](CS)C(=O)O [N-acetyl cysteine],expression of ICAM-1,ICAM-1; 10 mM overnight,Such changes are also recognized
"CC(C)=CCC1=C(O)C(O)(CC=C(C)C)C(=O)C(C(=O)C(C)C)=C1O (stereo not drawn) [cohumulone, reference compound]",QR inducing activity,[1],no clear change
"CC(C)=CCC(=O)C1(O)C(O)=C(C(=O)CC(C)C)C(=O)C1CC=C(C)C (stereo not drawn) [IH (E), isohumulone]",QR inducing activity,[1],activity was higher in isohumulones having a higher trans form content
"CCC(C)C(=O)C1=C(O)C(CC=C(C)C)=C(O)C(O)(CC=C(C)C)C1=O (stereo not drawn) [adhumulone, reference compound]",QR inducing activity,[1],no clear change
"CC(C)=CCC(=O)C1(O)C(O)=C(C(=O)CC(C)C)C(=O)C1CC=C(C)C (stereo not drawn) [IH, isohumulone]",QR inducing activity,[1],Concentration-dependent QR inducing activity; also recorded: higher activity than isohumulone (IaH)
"CCCCC/C=C/C=C1/C(=O)C=C[C@@H]1C/C=C\CCCC(=O)O [15dPGJ2, 15-deoxy-D12,14-prostaglandin J2, reference compound]",expression of G6PDX,[2],augmented the expression
same,TNF-α production,TNF-α,concentration-dependently suppressed
same,expression of HO1,heme oxygenase 1 (HO1),augmented the expression
same,expression of CD36,CD36,augmented the expression
same,expression of NQO1,[3],augmented the expression
same,cell death by hydrogen peroxide (cell survival rate),[4]; hydrogen peroxide 0.8 mM,suppressed cell death
same,cell death by hydrogen peroxide (cell survival rate),[4]; hydrogen peroxide 1.0 mM,suppressed cell death
same,expression of TRNRD1,[5],augmented the expression
same,expression of G6PD2,[6],augmented the expression
same,expression of CAT1,catalase 1 (CAT1),augmented the expression
same,amount of the total intracellular glutathione,[7],Increased the amount of the total intracellular glutathione
same,expression of GSTP2,[8],augmented the expression
same,expression of GSTM1,[9],augmented the expression
same,expression of GCLM,[10],augmented the expression
"CC(C)=CCC(=O)C1(O)C(O)=C(C(=O)CC(C)C)C(=O)C1CC=C(C)C (stereo not drawn) [IH (H), isohumulone]",QR inducing activity,[1],activity was higher in isohumulones having a higher trans form content
CCC(C)C(=O)C1=C(O)C(O)(C(=O)CC=C(C)C)C(CC=C(C)C)C1=O (stereo not drawn) [IaH],QR inducing activity,[1],Concentration-dependent QR inducing activity
C[S+]([O-])CCCCN=C=S (stereo not drawn) [sulforaphane],expression of ICAM-1,ICAM-1; 10 μM overnight,Such changes are also recognized
